Laboratory results as given in ChEMBL document CHEMBL3217737, “Discovery of a highly selective FLT3 kinase inhibitor from phenotypic cell viability profiling” (Medchemcomm, 2013).
Activity calls are given as the source filed them. The calls are words filed in the database; no cut-off is given here.

Assays:
[1] = target: Proto-oncogene tyrosine-protein kinase Src (Homo sapiens) (UniProt P12931); experiment: Inhibition of c-Src (unknown origin) at 10 uM assessed as residual enzyme activity
[2] = target: Aurora kinase A (Homo sapiens) (UniProt O14965); experiment: Inhibition of Aurora A (unknown origin) at 10 uM assessed as residual enzyme activity
[3] = target: Serine/threonine-protein kinase A-Raf (Homo sapiens) (UniProt P10398); experiment: Inhibition of ARAF (unknown origin) at 10 uM assessed as residual enzyme activity
[4] = target: Mitogen-activated protein kinase kinase kinase 5 (Homo sapiens) (UniProt Q99683); experiment: Inhibition of ASK1 (unknown origin) at 10 uM assessed as residual enzyme activity
[5] = target: RAC-alpha serine/threonine-protein kinase (Homo sapiens) (UniProt P31749); experiment: Inhibition of AKT1 (unknown origin) at 10 uM assessed as residual enzyme activity
[6] = target: Tyrosine-protein kinase ABL1 (Homo sapiens) (UniProt P00519); experiment: Inhibition of ABL1 (unknown origin) at 10 uM assessed as residual enzyme activity
[7] = target: Mast/stem cell growth factor receptor Kit (Homo sapiens) (UniProt P10721); experiment: Inhibition of c-KIT (unknown origin) at 10 uM assessed as residual enzyme activity
[8] = target: Receptor-type tyrosine-protein kinase FLT3 (Homo sapiens) (UniProt P36888); experiment: Inhibition of FLT3 (unknown origin) at 10 uM assessed as residual enzyme activity
[9] = target: Macrophage colony-stimulating factor 1 receptor (Homo sapiens) (UniProt P07333); experiment: Inhibition of FMS (unknown origin) at 10 uM assessed as residual enzyme activity
[10] = target: Receptor-type tyrosine-protein kinase FLT3 (Homo sapiens, UniProt P36888); experiment: Inhibition of FLT3 (unknown origin) by kinase hot spot assay
HL-60 [11] = experiment: Cytotoxicity against human HL60 cells assessed as cell growth inhibition after 24 hrs by WST1 assay; format: functional, cell-based
HL-60 [12] = experiment: Inhibition of STAT5 phosphorylation in human HL60 cells at 0.1 to 10 uM after 12 hrs by Western blot method; format: cell-based
HL-60 [13] = experiment: Inhibition of ERK phosphorylation in human HL60 cells at 0.1 to 10 uM after 12 hrs by Western blot method; format: cell-based
[14] = target: Receptor-type tyrosine-protein kinase FLT3 (Homo sapiens) (UniProt P36888); experiment: Inhibition of FLT3 in human MV4-11 cells assessed as reduction in STAT5 phosphorylation after 12 hrs by Western blot method; format: cell-based
[15] = target: Receptor-type tyrosine-protein kinase FLT3 (Homo sapiens) (UniProt P36888); experiment: Inhibition of FLT3 in human MV4-11 cells assessed as reduction in ERK phosphorylation after 12 hrs by Western blot method; format: cell-based
MV4-11 [16] = experiment: Induction of apoptosis in human MV4-11 cells assessed as increase in cleaved caspase-3 level at 0.1 to 10 uM after 12 hrs by Western blot method; format: functional, cell-based
MV4-11 [17] = experiment: Induction of apoptosis in human MV4-11 cells assessed as caspase 3 cleavage at 0.1 to 10 uM after 12 hrs by Western blot method; format: functional, cell-based
MV4-11 [18] = experiment: Induction of apoptosis in human MV4-11 cells assessed as PARP cleavage at 0.1 to 10 uM after 12 hrs by Western blot method; format: functional, cell-based
MV4-11 [19] = experiment: Cytotoxicity against human MV4-11 cells assessed as cell growth inhibition after 24 hrs by WST1 assay; format: functional, cell-based
MCF7 = experiment: Cytotoxicity against human MCF7 cells assessed as cell viability at 1 uM after 24 hrs by WST1 assay; format: functional; conditions: MCF7, 24 h, read-out: Activity
[20] = target: Mitogen-activated protein kinase 8 (Homo sapiens) (UniProt P45983); experiment: Inhibition of JNK1 (unknown origin) at 10 uM assessed as residual enzyme activity
[21] = target: Insulin receptor (Homo sapiens) (UniProt P06213); experiment: Inhibition of IR (unknown origin) at 10 uM assessed as residual enzyme activity
[22] = target: Tyrosine-protein kinase JAK1 (Homo sapiens) (UniProt P23458); experiment: Inhibition of JAK1 (unknown origin) at 10 uM assessed as residual enzyme activity
[23] = target: Fibroblast growth factor receptor 1 (Homo sapiens) (UniProt P11362); experiment: Inhibition of FGFR1 (unknown origin) at 10 uM assessed as residual enzyme activity
[24] = target: Vascular endothelial growth factor receptor 3 (Homo sapiens) (UniProt P35916); experiment: Inhibition of VEGFR3 (unknown origin) at 10 uM assessed as residual enzyme activity
[25] = target: Vascular endothelial growth factor receptor 1 (Homo sapiens) (UniProt P17948); experiment: Inhibition of VEGFR1 (unknown origin) at 10 uM assessed as residual enzyme activity
[26] = target: Serine/threonine-protein kinase PLK1 (Homo sapiens) (UniProt P53350); experiment: Inhibition of PLK1 (unknown origin) at 10 uM assessed as residual enzyme activity
Homo sapiens = organism: Homo sapiens; experiment: Inhibition of PKA (unknown origin) at 10 uM assessed as residual enzyme activity
[27] = target: Ribosomal protein S6 kinase beta-1 (Homo sapiens) (UniProt P23443); experiment: Inhibition of p70S6K (unknown origin) at 10 uM assessed as residual enzyme activity
[28] = target: Dual specificity mitogen-activated protein kinase kinase 1 (Homo sapiens) (UniProt Q02750); experiment: Inhibition of MEK1 (unknown origin) at 10 uM assessed as residual enzyme activity
[29] = target: Serine/threonine-protein kinase STK11 (Homo sapiens) (UniProt Q15831); experiment: Inhibition of LKB1 (unknown origin) at 10 uM assessed as residual enzyme activity
[30] = target: Tyrosine-protein kinase Lyn (Homo sapiens) (UniProt P07948); experiment: Inhibition of LYN (unknown origin) at 10 uM assessed as residual enzyme activity
[31] = target: Tyrosine-protein kinase Lck (Homo sapiens) (UniProt P06239); experiment: Inhibition of LCK (unknown origin) at 10 uM assessed as residual enzyme activity
[32] = target: Platelet-derived growth factor receptor beta (Homo sapiens) (UniProt P09619); experiment: Inhibition of PDGFRbeta (unknown origin) at 10 uM assessed as residual enzyme activity
[33] = target: Platelet-derived growth factor receptor alpha (Homo sapiens) (UniProt P16234); experiment: Inhibition of PDGFRalpha (unknown origin) at 10 uM assessed as residual enzyme activity
[34] = target: Focal adhesion kinase 1 (Homo sapiens) (UniProt Q05397); experiment: Inhibition of FAK (unknown origin) at 10 uM assessed as residual enzyme activity
[35] = target: Mitogen-activated protein kinase 1 (Homo sapiens) (UniProt P28482); experiment: Inhibition of ERK2 (unknown origin) at 10 uM assessed as residual enzyme activity
[36] = target: Mitogen-activated protein kinase 3 (Homo sapiens) (UniProt P27361); experiment: Inhibition of ERK1 (unknown origin) at 10 uM assessed as residual enzyme activity
[37] = target: Epidermal growth factor receptor (Homo sapiens) (UniProt P00533); experiment: Inhibition of EGFR (unknown origin) at 10 uM assessed as residual enzyme activity
[38] = tested on: RAF proto-oncogene serine/threonine-protein kinase; experiment: Inhibition of Raf1 (unknown origin) at 10 uM assessed as residual enzyme activity; conditions: Homo sapiens

Chain of Receptor-type tyrosine-protein kinase FLT3 (Homo sapiens) (P36888 whole entry): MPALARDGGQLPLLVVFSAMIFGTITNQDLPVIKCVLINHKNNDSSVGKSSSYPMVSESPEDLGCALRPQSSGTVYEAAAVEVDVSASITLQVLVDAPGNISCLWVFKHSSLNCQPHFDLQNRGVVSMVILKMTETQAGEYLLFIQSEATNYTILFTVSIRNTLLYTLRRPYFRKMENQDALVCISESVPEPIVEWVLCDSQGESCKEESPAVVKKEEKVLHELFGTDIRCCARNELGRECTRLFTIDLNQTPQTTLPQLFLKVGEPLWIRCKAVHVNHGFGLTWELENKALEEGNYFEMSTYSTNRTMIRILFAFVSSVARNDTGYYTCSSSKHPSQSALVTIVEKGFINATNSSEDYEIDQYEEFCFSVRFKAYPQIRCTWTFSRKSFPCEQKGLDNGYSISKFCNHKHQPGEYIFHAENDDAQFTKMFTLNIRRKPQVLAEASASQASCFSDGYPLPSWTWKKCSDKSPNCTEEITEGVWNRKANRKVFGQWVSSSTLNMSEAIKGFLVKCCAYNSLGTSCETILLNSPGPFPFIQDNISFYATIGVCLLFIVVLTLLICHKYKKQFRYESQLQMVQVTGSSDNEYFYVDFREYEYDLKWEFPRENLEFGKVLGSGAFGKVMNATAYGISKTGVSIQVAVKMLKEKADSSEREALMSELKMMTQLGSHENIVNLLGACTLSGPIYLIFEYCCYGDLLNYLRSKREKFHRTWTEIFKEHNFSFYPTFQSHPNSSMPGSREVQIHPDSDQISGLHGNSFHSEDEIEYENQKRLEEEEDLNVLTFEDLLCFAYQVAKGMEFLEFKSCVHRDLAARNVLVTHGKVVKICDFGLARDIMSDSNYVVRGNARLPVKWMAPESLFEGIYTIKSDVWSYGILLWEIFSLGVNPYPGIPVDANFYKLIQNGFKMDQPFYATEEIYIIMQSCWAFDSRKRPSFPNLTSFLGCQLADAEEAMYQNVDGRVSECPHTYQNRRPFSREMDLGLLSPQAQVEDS
Chain of Mitogen-activated protein kinase kinase kinase 5 (Homo sapiens) (Q99683 whole entry): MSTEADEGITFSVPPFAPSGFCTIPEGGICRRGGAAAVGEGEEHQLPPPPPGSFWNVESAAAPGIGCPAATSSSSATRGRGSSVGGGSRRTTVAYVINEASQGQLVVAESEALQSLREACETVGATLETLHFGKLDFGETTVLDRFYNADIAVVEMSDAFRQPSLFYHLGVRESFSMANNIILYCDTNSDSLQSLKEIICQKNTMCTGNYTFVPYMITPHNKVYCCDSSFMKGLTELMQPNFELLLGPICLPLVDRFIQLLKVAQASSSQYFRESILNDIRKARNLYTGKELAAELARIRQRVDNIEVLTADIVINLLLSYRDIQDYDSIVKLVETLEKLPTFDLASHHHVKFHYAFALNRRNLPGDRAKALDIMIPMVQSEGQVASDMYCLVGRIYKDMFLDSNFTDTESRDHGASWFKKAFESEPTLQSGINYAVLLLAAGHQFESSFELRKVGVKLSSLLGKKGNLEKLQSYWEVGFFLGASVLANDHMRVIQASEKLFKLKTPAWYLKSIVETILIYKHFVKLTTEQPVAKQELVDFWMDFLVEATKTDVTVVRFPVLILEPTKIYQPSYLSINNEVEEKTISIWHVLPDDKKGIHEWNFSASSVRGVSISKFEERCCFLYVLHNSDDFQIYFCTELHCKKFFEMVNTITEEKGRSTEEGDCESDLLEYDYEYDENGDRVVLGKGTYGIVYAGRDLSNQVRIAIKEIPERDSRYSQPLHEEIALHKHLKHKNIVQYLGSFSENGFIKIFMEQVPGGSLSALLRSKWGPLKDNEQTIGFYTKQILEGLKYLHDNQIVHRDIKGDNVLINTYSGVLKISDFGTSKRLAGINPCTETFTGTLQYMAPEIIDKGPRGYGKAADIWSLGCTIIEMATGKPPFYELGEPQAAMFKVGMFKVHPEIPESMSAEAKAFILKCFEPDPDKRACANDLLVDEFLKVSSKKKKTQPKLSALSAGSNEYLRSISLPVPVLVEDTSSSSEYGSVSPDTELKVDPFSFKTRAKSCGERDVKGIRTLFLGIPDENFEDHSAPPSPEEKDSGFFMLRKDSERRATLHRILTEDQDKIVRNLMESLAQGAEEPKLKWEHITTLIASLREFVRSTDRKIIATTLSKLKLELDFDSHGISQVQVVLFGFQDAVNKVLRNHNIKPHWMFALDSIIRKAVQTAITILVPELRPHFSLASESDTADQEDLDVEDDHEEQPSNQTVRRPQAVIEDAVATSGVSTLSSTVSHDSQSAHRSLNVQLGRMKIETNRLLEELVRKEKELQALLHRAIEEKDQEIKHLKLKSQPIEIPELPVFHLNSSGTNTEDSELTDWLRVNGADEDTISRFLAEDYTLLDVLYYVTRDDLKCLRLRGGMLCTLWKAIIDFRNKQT
Chain of Mitogen-activated protein kinase 3 (Homo sapiens) (P27361 whole entry): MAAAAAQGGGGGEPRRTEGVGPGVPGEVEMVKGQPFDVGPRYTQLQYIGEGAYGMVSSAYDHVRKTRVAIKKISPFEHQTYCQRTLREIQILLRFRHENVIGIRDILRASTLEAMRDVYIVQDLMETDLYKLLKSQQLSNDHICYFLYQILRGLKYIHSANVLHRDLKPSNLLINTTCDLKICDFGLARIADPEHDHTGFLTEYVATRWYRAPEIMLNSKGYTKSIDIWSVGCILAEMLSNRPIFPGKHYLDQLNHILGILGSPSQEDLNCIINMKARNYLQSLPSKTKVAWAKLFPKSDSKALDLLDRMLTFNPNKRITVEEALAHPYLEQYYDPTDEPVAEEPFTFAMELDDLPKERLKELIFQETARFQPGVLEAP
Chain of Platelet-derived growth factor receptor alpha (Homo sapiens) (P16234 whole entry): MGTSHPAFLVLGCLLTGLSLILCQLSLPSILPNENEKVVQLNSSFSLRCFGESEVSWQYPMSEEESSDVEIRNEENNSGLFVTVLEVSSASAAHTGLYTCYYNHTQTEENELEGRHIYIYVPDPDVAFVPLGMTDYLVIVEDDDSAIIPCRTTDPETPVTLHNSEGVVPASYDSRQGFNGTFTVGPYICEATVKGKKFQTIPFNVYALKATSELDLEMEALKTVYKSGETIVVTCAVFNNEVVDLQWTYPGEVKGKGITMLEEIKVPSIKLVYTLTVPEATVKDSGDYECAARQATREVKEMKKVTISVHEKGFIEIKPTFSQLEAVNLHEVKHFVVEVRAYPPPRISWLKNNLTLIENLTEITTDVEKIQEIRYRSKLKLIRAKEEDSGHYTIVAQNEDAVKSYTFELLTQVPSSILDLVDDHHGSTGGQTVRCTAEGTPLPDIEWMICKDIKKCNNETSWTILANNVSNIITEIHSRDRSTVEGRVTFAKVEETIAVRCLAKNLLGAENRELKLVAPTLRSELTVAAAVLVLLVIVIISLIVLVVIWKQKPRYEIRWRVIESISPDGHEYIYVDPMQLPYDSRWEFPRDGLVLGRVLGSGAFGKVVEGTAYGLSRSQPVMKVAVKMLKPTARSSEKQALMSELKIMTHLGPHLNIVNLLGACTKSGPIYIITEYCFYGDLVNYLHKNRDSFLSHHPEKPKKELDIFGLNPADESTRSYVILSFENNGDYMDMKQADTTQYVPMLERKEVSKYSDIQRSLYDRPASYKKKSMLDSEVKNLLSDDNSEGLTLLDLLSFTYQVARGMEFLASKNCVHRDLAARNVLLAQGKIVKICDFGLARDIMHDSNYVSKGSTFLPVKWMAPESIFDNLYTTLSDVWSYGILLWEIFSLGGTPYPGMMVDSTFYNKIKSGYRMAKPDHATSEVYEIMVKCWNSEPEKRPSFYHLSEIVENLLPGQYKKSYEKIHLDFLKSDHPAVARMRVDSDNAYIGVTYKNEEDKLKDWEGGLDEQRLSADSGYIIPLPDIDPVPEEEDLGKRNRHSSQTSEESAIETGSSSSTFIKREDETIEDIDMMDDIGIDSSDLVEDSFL
Chain of Fibroblast growth factor receptor 1 (Homo sapiens) (P11362 22-822 limits assumed): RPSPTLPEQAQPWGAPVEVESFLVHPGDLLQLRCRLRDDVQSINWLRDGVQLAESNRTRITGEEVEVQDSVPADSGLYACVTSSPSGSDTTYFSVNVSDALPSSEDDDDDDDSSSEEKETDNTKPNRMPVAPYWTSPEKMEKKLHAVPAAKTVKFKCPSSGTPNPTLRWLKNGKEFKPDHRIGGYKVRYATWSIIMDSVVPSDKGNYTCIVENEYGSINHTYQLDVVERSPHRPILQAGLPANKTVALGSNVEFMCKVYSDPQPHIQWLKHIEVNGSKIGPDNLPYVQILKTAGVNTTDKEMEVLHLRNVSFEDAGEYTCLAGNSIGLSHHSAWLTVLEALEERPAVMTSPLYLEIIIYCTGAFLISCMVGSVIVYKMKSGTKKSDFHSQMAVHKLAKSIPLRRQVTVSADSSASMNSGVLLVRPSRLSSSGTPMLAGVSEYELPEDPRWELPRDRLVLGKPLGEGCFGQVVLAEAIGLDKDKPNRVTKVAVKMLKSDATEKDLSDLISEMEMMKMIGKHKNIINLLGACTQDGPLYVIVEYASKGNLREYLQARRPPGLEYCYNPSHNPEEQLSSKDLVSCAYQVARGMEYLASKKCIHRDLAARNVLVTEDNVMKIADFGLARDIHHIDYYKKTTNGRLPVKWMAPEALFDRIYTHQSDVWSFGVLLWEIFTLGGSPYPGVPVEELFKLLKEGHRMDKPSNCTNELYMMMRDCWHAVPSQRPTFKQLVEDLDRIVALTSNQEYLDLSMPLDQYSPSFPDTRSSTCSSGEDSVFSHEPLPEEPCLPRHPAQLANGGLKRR
Chain of Mitogen-activated protein kinase 1 (Homo sapiens) (P28482 whole entry): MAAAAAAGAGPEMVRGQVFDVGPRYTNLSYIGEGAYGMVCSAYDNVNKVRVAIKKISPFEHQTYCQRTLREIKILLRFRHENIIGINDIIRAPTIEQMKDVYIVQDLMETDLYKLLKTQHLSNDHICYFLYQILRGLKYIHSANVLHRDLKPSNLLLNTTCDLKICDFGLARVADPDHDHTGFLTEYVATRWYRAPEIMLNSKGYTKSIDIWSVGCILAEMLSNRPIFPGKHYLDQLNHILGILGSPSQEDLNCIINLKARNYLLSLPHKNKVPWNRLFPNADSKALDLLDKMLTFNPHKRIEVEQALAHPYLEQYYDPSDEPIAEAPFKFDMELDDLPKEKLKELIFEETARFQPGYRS
Chain of Receptor-type tyrosine-protein kinase FLT3 (P36888 whole entry): as the sequence (P36888 whole entry) above

COc1ccc(-c2n[nH]c3ncc(-c4ccc(Cl)cc4N)cc23)cc1 gave an Activity [1] of 78.7%, an Activity [2] of 87.7% and an Activity [3] of 77%. The Activity [4] was 97.8%, the Activity [5] was 93.6% and the Activity [6] was 88.9%. The Activity [7] was 99.2%, the Activity [8] was 9.5% and the Activity [9] was 102%. The IC50 [10] was 1300 nM, the “growth inhibition (GI)” value (HL-60 [11]) was “inactive” and the inhibition (HL-60 [12]) was “inactive”. For the same compound, the inhibition (HL-60 [13]) was “inactive”, the inhibition [14] was “Dose-dependent effect” and the inhibition [15] was “Dose-dependent effect”. For the same compound, the Activity (MV4-11 [16]) was “Dose-dependent effect”, the Activity (MV4-11 [17]) was “Active” and the Activity (MV4-11 [18]) was “Active”. The “growth inhibition (GI)” value (MV4-11 [19]) was “Dose-dependent effect”, the IC50 (MV4-11 [19]; MV4-11, 24 h) was 592 nM and the viability at 1 µM (MCF7) was 86%. For the same compound, the Activity [20] was 101%, the Activity [21] was 95% and the Activity [22] was 103%. For the same compound, the Activity [23] was 90.1%, the Activity [24] was 101% and the Activity [25] was 90%. It also gave an Activity [26] of 108%, an Activity (Homo sapiens) of 93% and an Activity [27] of 94.1%. The Activity [28] was 102%, the Activity [29] was 101% and the Activity [30] was 86.6%. The Activity [31] was 95.2%, the Activity [32] was 96.3% and the Activity [33] was 93.8%. For the same compound, the Activity [34] was 96.8%, the Activity [35] was 94% and the Activity [36] was 95.4%. It also gave an Activity [37] of 91.2% and an Activity [38] of 94.9%.
